From patent US10508120B2, “TYK2 inhibitors and uses thereof” (Nimbus Lakshmi, Inc., priority 2017, dated 2019)
Read-outs that look alike come from different tables or passages of the source.

Tests used:
[1] = target: human TYK2 (JH2domain-pseudokinase) (Homo sapiens (Human), UniProt P29597); test: TYK2 JH2 Domain Binding Assay (KINOMEscan)
Procedure, shortened: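 Competition binding of an NFkB-DBD fusion of human TYK2 JH2 (G556–D888), expressed in HEK293 and used as crude extract at <0.1 nM, against immobilized ligand beads; 1 h at room temperature in PBS/Tween/DTT/BSA buffer, 0.9% DMSO.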

JAK2 kinase domain (JH1) = JAK2 kinase domain (JH1) (Homo sapiens (Human), UniProt O60674); test: JAK2 Radioactive Kinase Assay; type: biochemical; details: for inhibition at 10 µM: read-out: JAK2 JH1% Inhibition @ 10 μM
JAK2 kinase domain (JH1), sequence (O60674 849-1124): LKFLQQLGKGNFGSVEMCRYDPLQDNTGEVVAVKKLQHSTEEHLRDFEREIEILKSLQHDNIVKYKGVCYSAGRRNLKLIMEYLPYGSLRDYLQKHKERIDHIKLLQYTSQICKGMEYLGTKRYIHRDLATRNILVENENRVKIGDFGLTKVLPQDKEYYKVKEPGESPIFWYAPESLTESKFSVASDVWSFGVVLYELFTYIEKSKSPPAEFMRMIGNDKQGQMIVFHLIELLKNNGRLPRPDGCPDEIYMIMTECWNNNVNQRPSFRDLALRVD
Procedure, shortened: (§1)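 Read-out is percent inhibition from a radioactive kinase reaction, measured with compound at 10 μM.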

Tyk2 kinase domain (DH1) = Tyk2 kinase domain (DH1) (Homo sapiens (Human), UniProt P29597); test: Tyk2 Radioactive Kinase Assay; type: biochemical; details: for inhibition at 10 µM: read-out: Tyk2 JH1% Inhibition @ 10 μM
Tyk2 kinase domain (DH1), sequence (P29597 897-1176): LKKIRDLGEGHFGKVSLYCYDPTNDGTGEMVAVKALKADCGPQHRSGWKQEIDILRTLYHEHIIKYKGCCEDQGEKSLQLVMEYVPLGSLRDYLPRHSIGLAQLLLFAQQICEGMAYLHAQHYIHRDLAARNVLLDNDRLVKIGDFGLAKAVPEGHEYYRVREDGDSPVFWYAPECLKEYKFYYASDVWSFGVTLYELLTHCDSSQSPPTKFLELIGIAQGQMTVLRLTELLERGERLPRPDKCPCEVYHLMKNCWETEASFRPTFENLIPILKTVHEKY
Procedure, shortened: as §1

human TYK2 (JH2domain-pseudokinase), sequence (P29597 556-888): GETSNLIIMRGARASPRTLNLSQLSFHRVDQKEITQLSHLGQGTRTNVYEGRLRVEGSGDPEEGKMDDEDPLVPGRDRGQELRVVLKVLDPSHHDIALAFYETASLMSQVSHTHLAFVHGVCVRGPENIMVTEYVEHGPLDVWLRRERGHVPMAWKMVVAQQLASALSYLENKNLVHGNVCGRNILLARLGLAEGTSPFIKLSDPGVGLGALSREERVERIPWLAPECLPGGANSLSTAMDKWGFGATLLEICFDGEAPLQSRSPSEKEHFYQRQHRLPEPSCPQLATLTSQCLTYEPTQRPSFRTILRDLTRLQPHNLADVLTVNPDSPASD

Row | Structure (SMILES) | Kd [1] | inhibition at 10 µM (JAK2 kinase domain (JH1); 10 μM compound, 10 μM ATP) | inhibition at 10 µM (Tyk2 kinase domain (DH1); 10 μM compound, 10 μM ATP) | inhibition at 10 µM (JAK2 kinase domain (JH1); compound at 10 μM, ATP 10 μM) | inhibition at 10 µM (Tyk2 kinase domain (DH1); compound at 10 μM, ATP 10 μM) | JAK2 JH1% Inhibition @ 10 μM (JAK2 kinase domain (JH1); compound at 10 μM, ATP 10 μM) | Tyk2 JH1% Inhibition @ 10 μM (Tyk2 kinase domain (DH1); compound at 10 μM, ATP 10 μM)
1 | CNc1cc(Nc2cccn([C@H]3CCC[C@@H](OC)C3)c2=O)nc2c(C(=O)NCC3(CO)CC3)cnn12 (racemic) [I-862] | 0.2 to 1 nM | < 50% | < 50% | – | – | – | –
2 | CNc1cc(Nc2cccn([C@@H]3CCCOC3)c2=O)nc2c(C(=O)NC3CCC3)cnn12 [I-353] | < 0.2 nM | – | – | < 50% | < 50% | – | –
3 | CNc1cc(Nc2cccn([C@@H]3CCC[C@@H]3OC)c2=O)nc2c(C(=O)N[C@@H]3C[C@@H]3F)cnn12 [I-537] | 1 to 10 nM | – | – | – | – | A (percent inhibition at 10 μM lower than 50) | A (percent inhibition at 10 μM lower than 50)
4 | CNc1cc(-c2nn(CCN3CCCCC3)c3ncccc23)nc2c(C(=O)N[C@H]3C[C@H]3F)cnn12 [I-458] | 0.2 to 1 nM | – | – | < 50% | < 50% | – | –
5 | CNc1cc(Nc2cccc(N3CC[C@@H](OC)C3)n2)nc2c(C(=O)NC3CC3)cnn12 [I-482] | 0.2 to 1 nM | – | – | – | – | A (percent inhibition at 10 μM lower than 50) | A (percent inhibition at 10 μM lower than 50)
6 | CNc1cc(Nc2cccn([C@H]3CCC[C@@H](OC)C3)c2=O)nc2c(C(=O)NCC3(CO)CC3)cnn12 [I-928] | 0.2 to 1 nM | < 50% | < 50% | – | – | – | –
7 | CNc1cc(Nc2cc(C)nc(N3CCCC3=O)c2)nc2c(C(N)=O)cnn12 [I-54] | 1 to 10 nM | – | – | < 50% | < 50% | – | –
8 | CNc1cc(Nc2cccnc2OC2CC2)nc2c(C(=O)N[C@H]3[C@@H]4COC[C@@H]43)cnn12 [I-446] | 0.2 to 1 nM | – | – | < 50% | < 50% | – | –
9 | CCOc1ccc(-n2cccc(Nc3cc(NC)n4ncc(C(N)=O)c4n3)c2=O)nn1 [I-19] | 1 to 10 nM | – | – | < 50% | < 50% | – | –
10 | CNc1cc(Nc2cccnc2C(C)(F)F)nc2c(C(=O)NC3CC3)cnn12 [I-297] | 0.2 to 1 nM | – | – | < 50% | < 50% | – | –
11 | NC(=O)c1cnn2c(N)cc(Nc3cccn(-c4ccc(F)cn4)c3=O)nc12 [I-52] | 0.2 to 1 nM | – | – | < 50% | < 50% | – | –
12 | CNc1cc(Nc2cccn(C3CCOCC3)c2=O)nc2c(C(=O)N[C@@H]3CC[C@H]3O)cnn12 [I-597] | 0.2 to 1 nM | – | – | < 50% | < 50% | – | –
13 | CNc1cc(Nc2cccn(C3CCN(C)CC3(F)F)c2=O)nc2c(C(=O)NC3CC3)cnn12 (stereo not drawn) [I-761] | 0.2 to 1 nM | – | – | < 50% | < 50% | – | –
14 | CNc1cc(Nc2cccn(-c3ccccn3)c2=O)nc2c(C(=O)NC[C@@H](C)CO)cnn12 [I-731] | 0.2 to 1 nM | – | – | < 50% | < 50% | – | –
15 | CNc1cc(Nc2cccn([C@@H]3CCCC[C@@H]3OC)c2=O)nc2c(C(=O)NCC3(CO)CC3)cnn12 [I-991] | 1 to 10 nM | < 50% | < 50% | – | – | – | –
16 | CNc1cc(Nc2cccn(-c3ccc(C)nc3)c2=O)nc2c(C(=O)NC3CC3)cnn12 [I-765, N-cyclopropyl-5-((6′-methyl-2-oxo-2H-[1,3′-bipyridin]-3-yl)amino)-7-(methylamino)pyrazolo[1,5-a]pyrimidine-3-carboxamide] | < 0.2 nM | – | – | < 50% | < 50% | – | –
17 | CNc1cc(-c2cn(CCN3CCCCC3)c3ncccc23)nc2c(C(=O)N[C@@H]3CC[C@H]3O)cnn12 [I-794] | < 0.2 nM | – | – | < 50% | < 50% | – | –
18 | CNc1cc(Nc2cccn([C@H]3CCN(C)C[C@@H]3F)c2=O)nc2c(C(=O)NC3CC3)cnn12 [I-608] | < 0.2 nM | – | – | < 50% | < 50% | – | –
19 | CNc1cc(Nc2cccnc2OC2CCCCC2)nc2c(C(=O)N[C@H]3C[C@H]3F)cnn12 [I-227] | 0.2 to 1 nM | – | – | < 50% | < 50% | – | –

Row | Structure (SMILES) | Kd [1] | inhibition at 10 µM (JAK2 kinase domain (JH1); 10 μM compound, 10 μM ATP) | inhibition at 10 µM (Tyk2 kinase domain (DH1); 10 μM compound, 10 μM ATP) | inhibition at 10 µM (JAK2 kinase domain (JH1); compound at 10 μM, ATP 10 μM) | inhibition at 10 µM (Tyk2 kinase domain (DH1); compound at 10 μM, ATP 10 μM) | JAK2 JH1% Inhibition @ 10 μM (JAK2 kinase domain (JH1); compound at 10 μM, ATP 10 μM) | Tyk2 JH1% Inhibition @ 10 μM (Tyk2 kinase domain (DH1); compound at 10 μM, ATP 10 μM)
20 | CNc1cc(Nc2cccn(C3CCCCC3)c2=O)nc2c(C(=O)N[C@H]3CC[C@@H]3O)cnn12 [I-1003] | 0.2 to 1 nM | < 50% | < 50% | – | – | – | –
21 | CNc1cc(Nc2cccnc2OC2CC2)nc2c(C(=O)NCCC3(O)CC3)cnn12 [I-469, 5-((2-cyclopropoxypyridin-3-yl)amino)-N-(2-(1-hydroxycyclopropyl)ethyl)-7-(methylamino)pyrazolo[1,5-a]pyrimidine-3-carboxamide] | 1 to 10 nM | – | – | < 50% | < 50% | – | –
22 | CNc1cc(Nc2cccn([C@H]3CCCOC3)c2=O)nc2c(C(=O)NCC3(CO)CC3)cnn12 [I-699] | < 0.2 nM | – | – | < 50% | < 50% | – | –
23 | CNc1cc(Nc2cccn(-c3cccc(F)c3)c2=O)nc2c(C(=O)N[C@H]3CC[C@@H]3O)cnn12 [I-1024] | < 0.2 nM | < 50% | < 50% | – | – | – | –
24 | CNc1cc(Nc2cccn(C3CCCOC3)c2=O)nc2c(C(=O)NCC(C)(C)CO)cnn12 (stereo not drawn) [I-571] | < 0.2 nM | – | – | < 50% | < 50% | – | –
25 | CNc1cc(Nc2cccn([C@@H]3CCC[C@@H](O)C3)c2=O)nc2c(C(=O)NC3CC3)cnn12 [I-822] | < 0.2 nM | < 50% | < 50% | – | – | – | –
26 | CNc1cc(Nc2cccn([C@@H]3CCCC[C@@H]3OC)c2=O)nc2c(C(=O)N[C@@H]3C[C@@H]3F)cnn12 [I-915] | 1 to 10 nM | < 50% | < 50% | – | – | – | –
27 | CNc1cc(Nc2cccn(C[C@H]3CCCCO3)c2=O)nc2c(C(=O)N[C@@H]3C[C@@H]3F)cnn12 [I-427] | 0.2 to 1 nM | – | – | < 50% | < 50% | – | –
28 | CNc1cc(Nc2cccn([C@@H]3CCCC[C@@H]3O)c2=O)nc2c(C(=O)N[C@@H]3C[C@@H]3F)cnn12 [I-889] | 1 to 10 nM | < 50% | < 50% | – | – | – | –
29 | CNc1cc(Nc2cccc(-c3cn(C)nc3F)n2)nc2c(C(=O)N[C@H]3CC[C@H]3O)cnn12 [I-948] | < 0.2 nM | < 50% | < 50% | – | – | – | –
30 | CNc1cc(Nc2cccn(C3=NC(C)(C)CS3)c2=O)nc2c(C(=O)NC3CCC3)cnn12 [I-503] | 0.2 to 1 nM | – | – | < 50% | < 50% | – | –
31 | CNc1cc(Nc2cccc([C@H]3CCCOC3)n2)nc2c(C(=O)N[C@@H]3CC[C@@H]3O)cnn12 [I-641] | 0.2 to 1 nM | – | – | – | – | A (percent inhibition at 10 μM lower than 50) | A (percent inhibition at 10 μM lower than 50)
32 | CNc1cc(Nc2cccnc2OC)nc2c(C(N)=O)cnn12 [I-24] | < 0.2 nM | – | – | < 50% | < 50% | – | –
33 | CNc1cc(Nc2cccnc2OC2CC2)nc2c(C(=O)N[C@H]3CC[C@H](O)C3)cnn12 (stereo in doubt) [I-461, 5-((2-cyclopropoxypyridin-3-yl)amino)-N-(3-hydroxycyclopentyl)-7-(methylamino)pyrazolo[1,5-a]pyrimidine-3-carboxamide] | < 0.2 nM | – | – | < 50% | < 50% | – | –
34 | CNc1cc(Nc2cccn(C[C@H]3CCCCO3)c2=O)nc2c(C(=O)NC3CC3)cnn12 [I-412] | 0.2 to 1 nM | – | – | < 50% | < 50% | – | –
35 | CNc1cc(Nc2cc(C)nc(N3CCC[C@@H](O)C3)c2)nc2c(C(N)=O)cnn12 [I-61] | 0.2 to 1 nM | – | – | < 50% | < 50% | – | –
36 | CNc1cc(Nc2cccn([C@@H]3CCN(CCF)C3)c2=O)nc2c(C(=O)N[C@@H]3C[C@@H]3F)cnn12 [I-935] | < 0.2 nM | < 50% | < 50% | – | – | – | –
37 | [2H]C([2H])([2H])Oc1ncccc1Nc1cc(NC)n2ncc(C(=O)NC3[C@H]4COC[C@@H]34)c2n1 (stereo partly drawn) [I-447] | < 0.2 nM | – | – | < 50% | < 50% | – | –
